Test results reported in US5886172A, “Carbapenem-3-carboxylic acid ester derivatives” (Lederle (Japan) Ltd., priority 1995, dated 1999).
In brackets after ≈: the same amount, converted by molar mass. Values belong to the compound of their own block, whether it stands above or below them.

Assays:
S. aureus MS353 = test: Antibacterial activity, agar plate dilution method (MIC); assay type: cell-based; settings: Staphylococcus aureus, 37° C., 18 hours
Protocol: (§1) Antibacterial activity was tested by using an agar plate dilution method in accordance with the standard method of the Japanese Chemotherapy Society [Chemotherapy, vol. 29, 76-79 (1981)].
(§2) Mueller-Hinton (MH) agar liquid media of the test microorganisms were cultured overnight at 37° C. and the resultant culture media were diluted with a buffered saline gelatin (BSG) solution to contain approximately 10^5 cells of the test microorganisms per milliliter. Then, about 5 microliters each of the diluted solutions were inoculated on MH agar media containing the test compound by using a microplanter.
(§3) The test microorganism strains used in this test were all standard ones. The test compound used herein was Compound (22) obtained in Preparation 6, i.e., the compound of formula (II), which is the active metabolite of the compounds of formula (I).

S. paratyphi 1015 = test: as above; assay type: cell-based; settings: Salmonella enterica, 18 h
Protocol: as §1, §2, §3

P. vulgaris OX-19 = test: as above; assay type: cell-based; settings: Proteus vulgaris, OX19, 37° C., 18 hours
Protocol: as §1, §2, §3

P. mirabilis IFO 3849 = test: as above; assay type: cell-based; settings: Proteus mirabilis, IFO3849, 37° C., 18 hours
Protocol: as §1, §2, §3

M. morganii IFO 3848 = test: as above; assay type: cell-based; settings: Morganella morganii, IFO3848, 37° C., 18 hours
Protocol: as §1, §2, §3

S. marcescens IAM 1184 = test: as above; assay type: cell-based; settings: Serratia marcescens, IAM1184, 37° C., 18 hours
Protocol: as §1, §2, §3

S. aureus FDA209P JC-1 = test: as above; assay type: cell-based; settings: Staphylococcus aureus, 37° C., 18 hours
Protocol: as §1, §2, §3

E. coli NIHJ JC-2 = test: as above; assay type: cell-based; settings: Escherichia coli, NIHJJC2, 37° C., 18 hours
Protocol: as §1, §2, §3

P. rettgeri IFO 3850 = test: as above; assay type: cell-based; settings: Providencia rettgeri, IFO3850, 37° C., 18 hours
Protocol: as §1, §2, §3

S. typhi 901 = test: as above; assay type: cell-based; settings: Salmonella enterica, 18 h
Protocol: as §1, §2, §3

E. cloacae 963 = test: as above; assay type: cell-based; settings: Enterobacter cloacae, 37° C., 18 hours
Protocol: as §1, §2, §3

B. subtilis ATCC 6633 = test: as above; assay type: cell-based; settings: Bacillus subtilis, ATCC6633, 37° C., 18 hours
Protocol: as §1, §2, §3

S. schottmuelleri 8006 = test: as above; assay type: cell-based; settings: 37° C., 18 hours
Protocol: as §1, §2, §3

S. typhimurium 11D971 = test: as above; assay type: cell-based; settings: Salmonella enterica, 37° C., 18 hours
Protocol: as §1, §2, §3

S. pyogenes Cook = test: as above; assay type: cell-based; settings: Streptococcus pyogenes, 37° C., 18 hours
Protocol: as §1, §2, §3

E. aerogenes ATCC 13048 = test: as above; assay type: cell-based; settings: Klebsiella aerogenes, ATCC13048, 37° C., 18 hours
Protocol: as §1, §2, §3

S. aureus Terajima = test: as above; assay type: cell-based; settings: Staphylococcus aureus, 37° C., 18 hours
Protocol: as §1, §2, §3

K. pneumoniae PCI-602 = test: as above; assay type: cell-based; settings: Klebsiella pneumoniae, PCI602, 37° C., 18 hours
Protocol: as §1, §2, §3

S. enteritidis G14 = test: as above; assay type: cell-based; settings: Salmonella enterica, 37° C., 18 hours
Protocol: as §1, §2, §3

E. coli K-12 C600 = test: as above; assay type: cell-based; settings: Escherichia coli, K12C600, 37° C., 18 hours
Protocol: as §1, §2, §3

P. vulgaris HX-19 = test: as above; assay type: cell-based; settings: Proteus vulgaris, HX19, 37° C., 18 hours
Protocol: as §1, §2, §3

M. luteus ATCC 9341 = test: as above; assay type: cell-based; settings: Micrococcus luteus, ATCC9341, 37° C., 18 hours
Protocol: as §1, §2, §3

[1] = Stability Test (storage stability, residual activity by HPLC); assay type: physicochemical; settings: for Residual activity, initial day: assumed to be 100%; for Residual activity, 1 month: 43800 min; for Residual activity, 3 months: 131400 min; for Retention of potency on storage: conclusion from Table 2; for Residual activity, 1 month / remaining at 730 h: 1 month
Protocol: Storage stability of (1-methylcyclohexane-carboxy)methyl (1R,5S,6S)-2-[(1-(1,3-thiazolin-2-yl)azetidin-3-yl)thio]-6-[(R)-1-hydroxyethyl]-1-methyl-carbapen-2-em-3-carboxylate [Compound (24)] was tested in comparison with its amorphous form and (cyclohexanecarboxy)methyl (1R,5S,6S)-2-[(1-(1,3-thiazolin-2-yl)azetidin-3-yl)thio]-6-[(R)-1-hydroxyethyl]-1-methyl-carbapen-2-em-3-carboxylate [Compound (C)], which is disclosed in European Patent Publication 632,039 A1.
Each compound in an amount of 20 mg was put in a glass bottle, and left to stand for 3 months in a constant-temperature chamber at 40° C. and at 40° C. /75% of humidity. The activity of each compound was assayed by HPLC after 1 month and 3 months, respectively. Assuming the activity at the beginning (initial day) to be 100%, the decrease in the activity is shown by percent residual activity in Table 2.

[2] = 40° C., HPLC, initial day = 100%
[3] = 40° C., 3 months, HPLC, initial day = 100%
[4] = solid storage, 40° C./75% humidity, HPLC, initial day = 100%

Compound: C[C@@H](O)[C@H]1C(=O)N2C(C(=O)O)=C(SC3CN(C4=NCCS4)C3)[C@H](C)[C@H]12 [Compound (22), (1R,5S,6S)-2-[(1-(thiazolin-2-yl)azetidin-3-yl)thio]-6-[(R)-1-hydroxyethyl]-1-methyl-carbapen-2-em-3-carboxylic acid]
MIC (S. aureus MS353): ≤ 0.006 µg/mL | MIC (S. paratyphi 1015): 0.05 µg/mL (≈ 0.13 µM) | MIC (P. vulgaris OX-19): 0.1 µg/mL (≈ 0.261 µM) | MIC (P. mirabilis IFO 3849): 0.39 µg/mL (≈ 1.02 µM) | MIC (M. morganii IFO 3848): 0.39 µg/mL (≈ 1.02 µM) | MIC (S. marcescens IAM 1184): 0.05 µg/mL (≈ 0.13 µM) | MIC (S. aureus FDA209P JC-1): 0.013 µg/mL (≈ 0.0339 µM) | MIC (E. coli NIHJ JC-2): 0.013 µg/mL (≈ 0.0339 µM) | MIC (P. rettgeri IFO 3850): 0.39 µg/mL (≈ 1.02 µM) | MIC (S. typhi 901): ≤ 0.006 µg/mL | MIC (E. cloacae 963): 0.05 µg/mL (≈ 0.13 µM) | MIC (B. subtilis ATCC 6633): 0.025 µg/mL (≈ 0.0652 µM) | MIC (S. schottmuelleri 8006): 0.025 µg/mL (≈ 0.0652 µM) | MIC (S. typhimurium 11D971): 0.025 µg/mL (≈ 0.0652 µM) | MIC (S. pyogenes Cook): ≤ 0.006 µg/mL | MIC (E. aerogenes ATCC 13048): 0.1 µg/mL (≈ 0.261 µM) | MIC (S. aureus Terajima): ≤ 0.006 µg/mL | MIC (K. pneumoniae PCI-602): 0.013 µg/mL (≈ 0.0339 µM) | MIC (S. enteritidis G14): 0.39 µg/mL (≈ 1.02 µM) | MIC (E. coli K-12 C600): 0.1 µg/mL (≈ 0.261 µM) | MIC (P. vulgaris HX-19): 0.1 µg/mL (≈ 0.261 µM) | MIC (M. luteus ATCC 9341): 0.2 µg/mL (≈ 0.522 µM)

Residual activity, initial day ([1]; 40° C./75% humidity): 100% | Residual activity, 1 month [1, 2]: 67.5% | Residual activity, 3 months [1, 3]: 36.8% | Residual activity, initial day ([1]; 40° C.): 100% | Retention of potency on storage ([1]; listed as amorphous form): rapidly loses its potency
Compound: C[C@@H](O)[C@H]1C(=O)N2C(C(=O)OCOC(=O)C3(C)CCCCC3)=C(SC3CN(C4=NCCS4)C3)[C@H](C)[C@H]12 [Compound (24) (Amorphous), (1-methylcyclohexane-carboxy)methyl (1R,5S,6S)-2-[(1-(1,3-thiazolin-2-yl)azetidin-3-yl)thio]-6-[(R)-1-hydroxyethyl]-1-methyl-carbapen-2-em-3-carboxylate]

Residual activity, initial day ([1]; 40° C./75% humidity): 100% | Residual activity, 1 month [1, 2]: 99.4% | Residual activity, 3 months [1, 3]: 99.2% | Residual activity, initial day ([1]; 40° C.): 100% | remaining at 730 h [1, 4]: 98.9%
Compound: C[C@@H](O)[C@H]1C(=O)N2C(C(=O)OCOC(=O)C3(C)CCCCC3)=C(SC3CN(C4=NCCS4)C3)[C@H](C)[C@H]12 [Compound (24) (Crystalline), (1-methylcyclohexane-carboxy)methyl (1R,5S,6S)-2-[(1-(1,3-thiazolin-2-yl)azetidin-3-yl)thio]-6-[(R)-1-hydroxyethyl]-1-methyl-carbapen-2-em-3-carboxylate]
Retention of potency on storage ([1]; listed as crystalline form of Compound (24)): retains its potency over a long period of time

Residual activity, initial day ([1]; 40° C./75% humidity): 100% | Residual activity, initial day ([1]; 40° C.): 100% | remaining at 730 h [1, 4]: 73.7% | remaining at 730 h ([1]; solid storage, 40° C., HPLC, initial day = 100%): 98.9% | remaining at 2190 h ([1]; solid storage, 40° C., 3 months, HPLC, initial day = 100%): 94.2%
Compound: C[C@@H](O)[C@H]1C(=O)N2C(C(=O)OCOC(=O)C3CCCCC3)=C(SC3CN(C4=NCCS4)C3)[C@H](C)[C@H]12 [Compound (C) (Crystalline), (cyclohexanecarboxy)methyl (1R,5S,6S)-2-[(1-(1,3-thiazolin-2-yl)azetidin-3-yl)thio]-6-[(R)-1-hydroxyethyl]-1-methyl-carbapen-2-em-3-carboxylate, reference compound]
